Source: article PMC12169847, “Targeted protein degradation by KLHDC2 ligands identified by high-throughput screening” (eLife, 2025)
Values joined by “and” are separate entries in the source; they are usually repeats but may differ in a detail not shown here. Equal entries are not always repeated.

Key:
[1] = molecular target: T1, KEAP1 Kelch domain (Homo sapiens, UniProt Q14145); assay: Fluorescence polarization counter-screen, KEAP1 with TAMRA-NRF2 peptide; assay type: binding; conditions: for Fluorescence polarization signal: KEAP1, replicate wells; for inhibitory effect in the KEAP1 counter-screening assay: concentrations less than 20 µM; for EC50: in figure
T1 construct: HIS6 (N); made in house; host or cells: Escherichia coli BL21(DE3)

[2] = molecular target: T2, KLHDC2 (Homo sapiens, UniProt Q9Y2U9); assay: Surface plasmon resonance direct binding to immobilized KLHDC2; conditions: read-out: KLHDC2 Kd (SPR)
T2 sequence (Q9Y2U9 1-362): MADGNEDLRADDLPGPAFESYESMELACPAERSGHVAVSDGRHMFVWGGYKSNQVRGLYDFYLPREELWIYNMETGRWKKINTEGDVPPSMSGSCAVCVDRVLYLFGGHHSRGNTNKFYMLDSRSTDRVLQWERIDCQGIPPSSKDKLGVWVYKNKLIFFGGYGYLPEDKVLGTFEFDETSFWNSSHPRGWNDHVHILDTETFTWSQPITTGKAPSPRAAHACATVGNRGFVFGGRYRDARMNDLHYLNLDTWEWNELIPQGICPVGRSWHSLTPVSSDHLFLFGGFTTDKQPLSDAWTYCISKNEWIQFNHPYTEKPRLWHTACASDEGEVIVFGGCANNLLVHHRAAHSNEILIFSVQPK

[3] = molecular target: T3, GST-tagged KLHDC2 (Homo sapiens, UniProt Q9Y2U9); assay: Fluorescence polarization competition assay, KLHDC2 with TAMRA-SelK peptide (384-well); conditions: for Fluorescence polarization signal: KLHDC2, replicate wells
T3 sequence (Q9Y2U9 1-362): T2 sequence (Q9Y2U9 1-362)

[4] = molecular target: KLHDC2; parameters: method as in Rusnac et al., 2018; conditions: ref Rusnac et al., 2018; read-out: dissociation constant, reported literature value; cited from earlier work
[5] = molecular target: SelK (Homo sapiens) (UniProt Q9Y6D0); conditions: cited from earlier work
SelK (Homo sapiens), sequence (Q9Y6D0 2-94): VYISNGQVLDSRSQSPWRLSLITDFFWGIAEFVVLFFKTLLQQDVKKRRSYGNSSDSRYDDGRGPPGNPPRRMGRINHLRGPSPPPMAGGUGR

T1 sequence (Q14145 321-609 limits assumed): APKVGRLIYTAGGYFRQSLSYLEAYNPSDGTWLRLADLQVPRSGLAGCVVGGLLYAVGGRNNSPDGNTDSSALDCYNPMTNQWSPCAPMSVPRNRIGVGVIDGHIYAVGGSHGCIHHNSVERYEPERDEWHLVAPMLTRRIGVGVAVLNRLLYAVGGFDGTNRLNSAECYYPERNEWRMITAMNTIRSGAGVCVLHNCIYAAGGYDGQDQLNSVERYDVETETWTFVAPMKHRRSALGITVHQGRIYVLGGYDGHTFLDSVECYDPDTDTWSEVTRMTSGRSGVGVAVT
KLHDC2 (from UniProt Q9Y2U9), sequence (Q9Y2U9 whole entry): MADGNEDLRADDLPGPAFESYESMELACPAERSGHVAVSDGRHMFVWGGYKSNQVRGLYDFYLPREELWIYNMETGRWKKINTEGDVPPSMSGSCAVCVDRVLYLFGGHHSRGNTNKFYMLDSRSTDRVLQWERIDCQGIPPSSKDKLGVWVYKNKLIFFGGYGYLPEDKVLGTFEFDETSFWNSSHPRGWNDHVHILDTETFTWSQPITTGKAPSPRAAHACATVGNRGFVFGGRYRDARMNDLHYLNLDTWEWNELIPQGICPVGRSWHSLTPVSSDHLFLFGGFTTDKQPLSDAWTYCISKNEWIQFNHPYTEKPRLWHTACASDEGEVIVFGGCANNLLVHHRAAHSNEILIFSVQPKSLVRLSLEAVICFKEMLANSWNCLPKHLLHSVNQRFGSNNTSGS

Row | Fluorescence polarization signal ([1]; 0.169351 nM) | Fluorescence polarization signal ([1]; 0.508053 nM) | Fluorescence polarization signal ([1]; 1.52416 nM) | Fluorescence polarization signal ([1]; 4.57247 nM) | Fluorescence polarization signal ([1]; 13.7174 nM) | Fluorescence polarization signal ([1]; 41.1523 nM) | Fluorescence polarization signal ([1]; 123.457 nM) | Fluorescence polarization signal ([1]; 370.37 nM) | Fluorescence polarization signal ([1]; 1111.11 nM) | Fluorescence polarization signal ([1]; 3333.33 nM) | Fluorescence polarization signal ([1]; 10000 nM) | inhibitory effect in the KEAP1 counter-screening assay [1] | EC50 [1] [nM] | Kd [2] | EC50 [3] [nM] | IC50 [3] [nM] | Fluorescence polarization signal ([3]; 0.169351 nM) | Fluorescence polarization signal ([3]; 0.508053 nM) | Fluorescence polarization signal ([3]; 1.52416 nM) | Fluorescence polarization signal ([3]; 4.57247 nM) | Molecule | further results
1 | 15.2 and 20.2 and 9.533 | 11.1 and 15.1 and 18.7 | 20.7 and 19.8 (2×) | 27.1 and 18.2 and 28.2 | 24.4 and 19.1 and 17 | 12.2 and 19.5 and 19.8 | 21.2 and 18.9 and 16.3 | 24.1 and 16.2 and 17.6 | 21.2 and 15.6 and 17.3 | 8.697 and 21.8 and 19.7 | 14.9 and 22.1 and 19.3 | did not have an inhibitory effect | > 20000 | 810 nM and 809 nM | 2500 | 2500 | 0.6958 and 5.527 and -6.154 | 0.1958 and 5.927 and -4.854 | -13.1042 and -0.4734 and -3.754 | 1.996 and -1.273 and -4.954 | COc1ccc(C2CC(c3cccc(F)c3)Nc3c(C(=O)O)cc(Br)cc32)cc1OC (centres unmarked) [compound 1] | Fluorescence polarization signal ([3]; 13.7174 nM): 2.396 and 3.527 and -0.6542; Fluorescence polarization signal ([3]; 41.1523 nM): 2.696 and 0.3828 and -2.854; Fluorescence polarization signal ([3]; 123.457 nM): -3.504 and -5.782 and -9.454; Fluorescence polarization signal ([3]; 370.37 nM): -4.604 and 3.827 and -2.854; Fluorescence polarization signal ([3]; 1111.11 nM): -13.7042 and -3.373 and -3.854; Fluorescence polarization signal ([3]; 3333.33 nM): -18.1042 and -20.4734 and -17.5543; Fluorescence polarization signal ([3]; 10000 nM): -16.9042 and -31.6734 and -31.9543
2 |  |  |  |  |  |  |  |  |  |  |  |  |  |  |  |  |  |  |  |  | SelK: client protein of KLHDC2 with C-terminal diglycine degron | Kd [4]: < 10 nM
3 | 20 and 24 and 25 | 22 and 20 and 32 | 29 and 21 and 41 | 16 and 24 and 43 | 24 (2×) and 27 | 20 and 18 and 26 | 20 and 35 and 31 | 31 and 22 and 25 | 25 and 23 and 18 | 15 and 26 and 34 | 31 and 14 and 27 | no inhibitory effect | > 20000 | 380 nM and 379 nM | 760 | 760 | -4 and 1 and 6 | -11.1 and -2.3 and 1 | -1.4 and 2 and 0 | 1 (2×) and -8.1 | O=C(O)c1cc(Cl)cc2c1NC(c1cccc(C(F)(F)F)c1)C1C3CCC(C3)C21 (centres unmarked) [compound 5] | Fluorescence polarization signal ([3]; 13.7174 nM): 1 and -4 and 0; Fluorescence polarization signal ([3]; 41.1523 nM): 1 and -1.4 and -5.1; Fluorescence polarization signal ([3]; 123.457 nM): 0 and -2.6 and -8.8; Fluorescence polarization signal ([3]; 370.37 nM): -30.6 and -31 and -24.7; Fluorescence polarization signal ([3]; 1111.11 nM): -67.8 and -66.2 and -52.8; Fluorescence polarization signal ([3]; 3333.33 nM): -93.4 and -88.4 and -82.2; Fluorescence polarization signal ([3]; 10000 nM): -84.4 and -101.233 and -107.845
4 |  |  |  |  |  |  |  |  |  |  |  |  |  |  |  |  |  |  |  |  | KLHDC2 (from UniProt Q9Y2U9) | Kd [5]: 3.4 nM
5 | 14.7 and 20.2 and 14.4 | 10.4 and 15.1 and 11.1 | 17 and 19.8 and 20.3 | 20.3 and 18.2 and 19.6 | 18.8 and 19.1 and 18 | 21.6 and 19.5 and 32 | 24.5 and 18.9 and 12.1 | 22.6 and 16.2 and 24.9 | 20.2 and 15.6 and 21 | 14.8 and 21.8 and 27 | 17.3 and 22.1 and 15.2 | did not have an inhibitory effect | > 20000 | 440 nM and 443 nM | 1270 | 1300 | -6.704 and 3.427 and -1.254 | -10.2042 and 5.927 and -5.854 | -0.3042 and -6.173 and -5.554 | 3.896 and 7.124 and -7.354 | Cc1ccc(C)c(C2Nc3c(C(=O)O)cc(Cl)cc3C3C4CCC(C4)C23)c1 (centres unmarked) [compound 2] | Fluorescence polarization signal ([3]; 13.7174 nM): 2.496 and 7.927 and -2.554; Fluorescence polarization signal ([3]; 41.1523 nM): 1.996 and 10.1266 and 8.192; Fluorescence polarization signal ([3]; 123.457 nM): -3.304 and -7.673 and -6.554; Fluorescence polarization signal ([3]; 370.37 nM): -2.804 and -8.673 and -1.254; Fluorescence polarization signal ([3]; 1111.11 nM): -10.1042 and -12.1734 and -2.854; Fluorescence polarization signal ([3]; 3333.33 nM): -28.2042 and -24.2734 and -28.2543; Fluorescence polarization signal ([3]; 10000 nM): -26.0042 and -23.7734 and -24.4543
